Laboratory results published in patent US20240317712A1, “[…] DERIVATIVES AS INHIBITORS OF […]-PEPTIDE CYCLOTRANSFERASE AND […]-PEPTIDE CYCLOTRANSFERASE LIKE PROTEIN” (Boehringer Ingelheim International GmbH, priority 2023, published 2024).

tested on: SIRPα signalling induced by A549 cells; assay: Assay B: SIRPα signalling assay using A549 cells; type: cell-based; details: Homo sapiens, 48 h compound incubation, Jurkat PathHunter SIRPaV1 reporter cells, read-out: Inhibition of SIRPα signalling induced by A549 cells: IC50
Procedure: (§1) Two cell types are independently used: the Raji cell line (lymphoblast-like human cell line derived from B lymphocytes from a Burkitt's lymphoma patient in 1963) and A549 cells (adenocarcinoma human alveolar basal epithelial cells).
(§2) Test compounds were dissolved in 100% DMSO and serially diluted into a white 384-well microtiter cell culture plate (PerkinElmer #60076780 in case of Raji assay; PDL-coated plates Greiner #781945 in case of A549 assay), 5000 Raji cells (ATCC #CC86) or 5000 A549 cells (ATCC #CCL-185) in Assay Complete Cell Plating reagent 30 (DiscoverX 93-0563R30B) were added per well. The assay plate was incubated for 48 h at 37° C., 95% humidity and 5% CO2. 15000 reporter cells (Jurkat PathHunter SIRPaV1, DiscoverX #93-1135C19) were added to each well, and the plate was incubated for 5 h at 37° C., 95% humidity and 5% CO2. Bioassay reagent 1 of the PathHunter Bioassay detection kit (DiscoverX 93-0001) was added to each well of the plate using a multichannel pipette followed by a 15 min incubation at room temperature. Afterwards bioassay reagent 2 was added followed by 60 min incubation at room temperature (incubation in the dark). The analysis of the data was performed using the luminescence signal generated by beta-galactosidase in the PathHunter reporter cell line. The luminescence measurement was done using a Pherastar Multi-Mode Reader. Dose-response curves & IC50 data were calculated with 4-parameter sigmoidal dose response formula.

Row | IC50 [nM] | SMILES
1 | 218 | COC(=O)c1cc(C#N)c(N2CCC(c3nncn3C)CC2)c(-c2ccc(F)nc2)c1 [Example 15]
2 | 18 | Cn1cnnc1C1CCN(c2c(C#N)cc(Cl)cc2-c2ccc(F)nc2)CC1 [Example 16]
3 | 5 | Cn1cnnc1C1CCN(c2c(C#N)cc(Cl)cc2-c2cnc3nn(C(C)(C)C)cc3c2)CC1 [Example 17]
4 | 24 | Cn1cnnc1C1(F)CCN(c2c(C#N)cc(Cl)cc2-c2ccc(F)nc2)CC1 [Example 18]
5 | 9 | Cn1cnnc1C1(F)CCN(c2c(C#N)cc(Cl)cc2-c2cnc3nn(C(C)(C)C)cc3c2)CC1 [Example 19]
6 | 24 | COc1ccc(-c2ccc(F)nc2)c(N2CCC(c3nncn3C)CC2)c1C#N [Example 20]
7 | 280 | Cn1cnnc1C1CCN(c2c(C#N)cc(C#N)cc2-c2ccc(F)nc2)CC1 [Example 21]

tested on: SIRPα signalling induced by Raji cells; assay: Assay B: SIRPα signalling assay using Raji cells; type: cell-based; details: Homo sapiens, 48 h compound incubation, Jurkat PathHunter SIRPaV1 reporter cells, read-out: Inhibition of SIRPα signalling induced by Raji cells: IC50
Procedure: as §1, §2

Row | IC50 [nM] | SMILES
8 | 312 | COC(=O)c1cc(C#N)c(N2CCC(c3nncn3C)CC2)c(-c2ccc(F)nc2)c1 [Example 15]
9 | 30 | Cn1cnnc1C1CCN(c2c(C#N)cc(Cl)cc2-c2ccc(F)nc2)CC1 [Example 16]
10 | 17 | Cn1cnnc1C1CCN(c2c(C#N)cc(Cl)cc2-c2cnc3nn(C(C)(C)C)cc3c2)CC1 [Example 17]
11 | 36 | Cn1cnnc1C1(F)CCN(c2c(C#N)cc(Cl)cc2-c2ccc(F)nc2)CC1 [Example 18]
12 | 9 | Cn1cnnc1C1(F)CCN(c2c(C#N)cc(Cl)cc2-c2cnc3nn(C(C)(C)C)cc3c2)CC1 [Example 19]
13 | 102 | COc1ccc(-c2ccc(F)nc2)c(N2CCC(c3nncn3C)CC2)c1C#N [Example 20]
14 | 324 | Cn1cnnc1C1CCN(c2c(C#N)cc(C#N)cc2-c2ccc(F)nc2)CC1 [Example 21]

tested on: not listed separately; assay: Assay C: Permeability in CACO-2 cells; type: in vitro ADME; details: human, pH 7.2; Caco-2, permeability B−A/permeability A−B
Procedure: Caco-2 cells (1-2×10^5 cells/1 cm^2 area) are seeded on filter inserts (Costar transwell polycarbonate or PET filters, 0.4 μm pore size) and cultured (DMEM) for 10 to 25 days. Compounds are dissolved in appropriate solvent (like DMSO, 1-20 mM stock solutions). […] The transport solution (TL) is applied to the apical or basolateral donor side for measuring A-B or B-A permeability (3 filter replicates), respectively. Samples are collected at the start and end of experiment from the donor and at various time intervals for up to 2 hours also from the receiver side for concentration measurement by HPLC-MS/MS or scintillation counting. Sampled receiver volumes are replaced with fresh receiver solution.
Efflux ratio (ER)=permeability B−A/permeability A−B

Row | efflux ratio | SMILES
15 | 9.2 | COC(=O)c1cc(C#N)c(N2CCC(c3nncn3C)CC2)c(-c2ccc(F)nc2)c1 [Example 15]
16 | 3.3 | Cn1cnnc1C1CCN(c2c(C#N)cc(Cl)cc2-c2ccc(F)nc2)CC1 [Example 16]
17 | 21.2 | Cn1cnnc1C1CCN(c2c(C#N)cc(Cl)cc2-c2cnc3nn(C(C)(C)C)cc3c2)CC1 [Example 17]
18 | 1 | Cn1cnnc1C1(F)CCN(c2c(C#N)cc(Cl)cc2-c2ccc(F)nc2)CC1 [Example 18]
19 | 4.5 | Cn1cnnc1C1(F)CCN(c2c(C#N)cc(Cl)cc2-c2cnc3nn(C(C)(C)C)cc3c2)CC1 [Example 19]
20 | 12.5 | COc1ccc(-c2ccc(F)nc2)c(N2CCC(c3nncn3C)CC2)c1C#N [Example 20]
21 | 39.1 | Cn1cnnc1C1CCN(c2c(C#N)cc(C#N)cc2-c2ccc(F)nc2)CC1 [Example 21]

same assay, conditions: human; Caco-2, apical to basolateral, pH 7.2

Row | Papp A→B [×10⁻⁶ cm/s] | SMILES
22 | 5.3 | COC(=O)c1cc(C#N)c(N2CCC(c3nncn3C)CC2)c(-c2ccc(F)nc2)c1 [Example 15]
23 | 23 | Cn1cnnc1C1CCN(c2c(C#N)cc(Cl)cc2-c2ccc(F)nc2)CC1 [Example 16]
24 | 2.5 | Cn1cnnc1C1CCN(c2c(C#N)cc(Cl)cc2-c2cnc3nn(C(C)(C)C)cc3c2)CC1 [Example 17]
25 | 66 | Cn1cnnc1C1(F)CCN(c2c(C#N)cc(Cl)cc2-c2ccc(F)nc2)CC1 [Example 18]
26 | 18 | Cn1cnnc1C1(F)CCN(c2c(C#N)cc(Cl)cc2-c2cnc3nn(C(C)(C)C)cc3c2)CC1 [Example 19]
27 | 5.6 | COc1ccc(-c2ccc(F)nc2)c(N2CCC(c3nncn3C)CC2)c1C#N [Example 20]
28 | 1.1 | Cn1cnnc1C1CCN(c2c(C#N)cc(C#N)cc2-c2ccc(F)nc2)CC1 [Example 21]

target: T1, QPCTL (Homo sapiens, UniProt Q9NXS2); assay: Assay A: biochemical QPCTL activity assay (MALDI-TOF MS, CD47 peptide substrate); details: 0.5 nM enzyme, 10 μM CD47 peptide substrate; read-out: Inhibition of QPCTL: IC50
T1 construct: made in house
Procedure: (§3) QPCT or QPCTL dependent conversion of N-terminal glutamine to pyroglutamate of CD47 was monitored via MALDI-TOF MS. Test compounds were dissolved in 100% DMSO and serially diluted into clear 1,536-well microtiter plates. Enzymatic reactions were set up in assay buffer containing 20 mM Tris pH 7.5, 0.1 mM TCEP, 0.01% BSA, and 0.001% Tween20. […] The plates were incubated for 10 min in a humidified incubator at 24° C. Subsequently, 2.5 µL of CD47 peptide substrate surrogate (^19[…]^33) was added to each well (final concentration: 10 μM for QPCTL/20 μM for QPCT). The plates were mixed for 30 sec at 1,000 rpm and subsequently incubated for 40 min in a humidified incubator at 24° C. […] The plates were sealed with an adhesive foil, mixed for 30 s at 1,000 rpm and stored at room temperature until preparation of the MALDI target plates. MALDI target plates were prepared as described previously. […] QPCT or QPCTL activity was monitored by calculating the ratio between product and internal standard signals followed by normalization to high (100% activity) and low (0% activity) controls. Determination of compound potencies was obtained by fitting the dose-response data to a four-parameter logistical equation.

T1 sequence (Q9NXS2 whole entry): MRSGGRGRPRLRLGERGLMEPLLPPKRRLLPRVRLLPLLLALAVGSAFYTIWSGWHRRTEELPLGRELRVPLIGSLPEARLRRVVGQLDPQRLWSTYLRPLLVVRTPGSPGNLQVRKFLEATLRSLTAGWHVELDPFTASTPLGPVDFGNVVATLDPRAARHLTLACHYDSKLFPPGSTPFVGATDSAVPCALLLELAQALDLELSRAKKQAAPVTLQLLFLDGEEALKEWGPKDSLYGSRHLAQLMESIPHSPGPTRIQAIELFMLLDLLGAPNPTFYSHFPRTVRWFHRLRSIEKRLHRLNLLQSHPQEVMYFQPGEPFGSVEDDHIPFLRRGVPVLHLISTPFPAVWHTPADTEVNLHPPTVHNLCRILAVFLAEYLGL

Row | IC50 [nM] | SMILES
29 | 3 | COC(=O)c1cc(C#N)c(N2CCC(c3nncn3C)CC2)c(-c2ccc(F)nc2)c1 [Example 15]
30 | 2 | Cn1cnnc1C1CCN(c2c(C#N)cc(Cl)cc2-c2ccc(F)nc2)CC1 [Example 16]
31 | 1 | Cn1cnnc1C1CCN(c2c(C#N)cc(Cl)cc2-c2cnc3nn(C(C)(C)C)cc3c2)CC1 [Example 17]
32 | 2 | Cn1cnnc1C1(F)CCN(c2c(C#N)cc(Cl)cc2-c2ccc(F)nc2)CC1 [Example 18]
33 | 1 | Cn1cnnc1C1(F)CCN(c2c(C#N)cc(Cl)cc2-c2cnc3nn(C(C)(C)C)cc3c2)CC1 [Example 19]
34 | 1 | COc1ccc(-c2ccc(F)nc2)c(N2CCC(c3nncn3C)CC2)c1C#N [Example 20]
35 | 5 | Cn1cnnc1C1CCN(c2c(C#N)cc(C#N)cc2-c2ccc(F)nc2)CC1 [Example 21]

target: T2, QPCT (Homo sapiens, UniProt Q16769); assay: Assay A: biochemical QPCT activity assay (MALDI-TOF MS, CD47 peptide substrate); details: 0.5 nM enzyme, 20 μM CD47 peptide substrate; read-out: Inhibition of QPCT: IC50
T2 construct: purchased Origine (so in the source)
Procedure: as §3

T2 sequence (Q16769 29-361): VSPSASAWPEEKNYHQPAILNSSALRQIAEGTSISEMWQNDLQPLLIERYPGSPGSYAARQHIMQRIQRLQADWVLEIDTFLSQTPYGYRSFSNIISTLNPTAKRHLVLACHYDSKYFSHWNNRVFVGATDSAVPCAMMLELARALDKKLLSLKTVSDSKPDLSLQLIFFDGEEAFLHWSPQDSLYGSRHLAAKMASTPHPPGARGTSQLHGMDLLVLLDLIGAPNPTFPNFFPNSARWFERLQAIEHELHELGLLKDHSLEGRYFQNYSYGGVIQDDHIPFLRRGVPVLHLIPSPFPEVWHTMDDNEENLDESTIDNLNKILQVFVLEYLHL

Row | IC50 [nM] | SMILES
36 | 12 | COC(=O)c1cc(C#N)c(N2CCC(c3nncn3C)CC2)c(-c2ccc(F)nc2)c1 [Example 15]
37 | 8 | Cn1cnnc1C1CCN(c2c(C#N)cc(Cl)cc2-c2ccc(F)nc2)CC1 [Example 16]
38 | 1 | Cn1cnnc1C1CCN(c2c(C#N)cc(Cl)cc2-c2cnc3nn(C(C)(C)C)cc3c2)CC1 [Example 17]
39 | 4 | Cn1cnnc1C1(F)CCN(c2c(C#N)cc(Cl)cc2-c2ccc(F)nc2)CC1 [Example 18]
40 | 1 | Cn1cnnc1C1(F)CCN(c2c(C#N)cc(Cl)cc2-c2cnc3nn(C(C)(C)C)cc3c2)CC1 [Example 19]
41 | 4 | COc1ccc(-c2ccc(F)nc2)c(N2CCC(c3nncn3C)CC2)c1C#N [Example 20]
42 | 25 | Cn1cnnc1C1CCN(c2c(C#N)cc(C#N)cc2-c2ccc(F)nc2)CC1 [Example 21]
